# Tested on: hearts of aged (18-22 month old) WT mice
# Assay: Reversal of age-induced cardiac fibrosis and inflammation in aged WT mice (histology, immunofluorescence, western blot)
# Assay type: in vivo, mouse
# Conditions: aged (~20 month old) WT mice, 4 weeks, FIG. 19
# Method: There are 8 different sets of in vivo experiments in this study: • A) Phenotypic characterisation of the heart and blood vessels in global IRAP knockout mice and their WT controls treated for 4 weeks with Angiotensin (Ang) II (800 ng/kg/min; s.c.) where mouse hearts and blood vessels were compared to tissue obtained from young WT and IRAP^−/− mice treated with saline. • B) Prevention of Ang II-induced changes in the cardiovascular system following IRAP inhibitor treatment. In the prevention model, WT mice were treated with Ang II (800 ng/kg/min; s.c.)±the IRAP inhibitor (HFI-419; 500 ng/kg/min for 28 days) or HFI-vehicle (1 DMSO:3 HBC). • C) Phenotypic characterisation of the aged heart, kidney and blood vessels in the global IRAP knockout mice where aged WT and IRAP^−/− mouse hearts, kidneys and blood vessels were compared to tissue obtained from young WT and IRAP^−/− mice. • D) Reversal of the age-induced changes in the cardiovascular system following IRAP inhibitor treatment. In the reversal model, aged WT mice were treated with either saline, IRAP inhibitor (HFI-419 at 500 ng/kg/min; compound 1 at 500 ng/kg/min; compound 2 at 50 ng/kg/min) or HFI-vehicle (1 DMSO: 3 HBC) for 4 weeks. • E) Prevention of ischemic-reperfusion injury in isolated hearts taken from aged global IRAP knockout mice and aged IRAP inhibitor (HFI-419 at 500 ng/kg/min; s.c.) treated WT mice compared to age-matched vehicle-treated (1 DMSO:3 HBC; s.c.) WT controls. • F) Phenotypic characterization of cardiac function using echocardiography in the aged global IRAP knockout mice compared to aged and young WT mice. • G) Phenotypic characterization of liver steatosis in IRAP knockout mice in a high fat diet (HFD) model. • H) Reversal of the salt-induced fibrosis in the liver following IRAP inhibitor treatment.
# All mice which underwent surgery were anaesthetized with Isoflurane (Isorrane) (5% induction and 2.5% maintenance) and an incision made in the midscapular region through which osmotic minipumps (Alzet model 2004, Alza Corp) were inserted for subcutaneous drug administration. The incision area was sutured with 6/0 DY silk (Dynek Pty Ltd) and antibiotic powder applied (Cicatrin, Pfizer) followed by intramuscular injection of the analgesic Cartrophen (0.1 ml of a 1.5 mg/ml stock solution; Biopharm Australia). Systolic blood pressure (SBP) was measured fortnightly using non-invasive tail-cuff plethysmography apparatus (MC4000 Blood Pressure Analysis System, Hatteras Instrument Inc) before drug treatment (week 0), at week 2 of treatment and end of treatment (week 4). At the end of drug treatment, body weight of mice was recorded. Mice were anaesthetized using Isoflurane inhalation and killed by cervical dislocation. Organs (heart, aorta, kidneys, brain, blood and tibia) were collected, with heart and aorta being dissected appropriately as described below. All organs were then snap frozen in liquid nitrogen, and stored at −80° C. if they were not used for vascular reactivity studies conducted on the day mice were killed.
# To measure collagen deposition, frozen sections of heart, kidney or aorta (all 5 μm thickness) were air dried for 10 minutes and were brought through 3 times xylene (2 minutes each), and 3 times absolute alcohol washes before being rinsed in tap H2O for 30 seconds. Staining with an optimal concentration of picrosirius red (in this instance 0.05% picrosirius red diluted in saturated picric acid) was performed and left for an hour. Sections were then rinsed in water and differentiated in 0.01 M HCl for 2 minutes, followed by dehydration via 3 times absolute alcohol washes. Then, slides were brought through 3 times xylene washes before being cover slipped according to standard histological techniques using DPX as the mounting medium. […]
Structure (SMILES),age-induced collagen expression in the heart (picrosirius red) (compound 1 at 500 ng/kg/min),age-induced collagen expression in the heart (picrosirius red) (compound 2 at 50 ng/kg/min)
"CC(=O)C1=C(C)OC(N)=C(C#N)C1c1ccc(C(=O)O)cc1.N (centres unmarked) [Compound 1, 4-(3-acetyl-6-amino-5-cyano-2-methyl-4H-pyran-4-yl)benzoic acid]",reverse,
N[C@H]1CCSSC[C@@H](C(=O)NCc2ccccc2CC(=O)O)NC(=O)C[C@H](Cc2ccc(O)cc2)NC1=O [Compound 2],,reverse

# From US11834663B2, “Fibrotic treatment” (Monash University, priority 2015, dated 2023)
